From patent publication US6737383B1, “Herbicidal oxadiazolidines” (priority 1999, dated 2004)

What was measured:
Conditions in all cases: Preemergence, 0 to 100 scale
bermuda-grass = assay: Test D bermudagrass; type: in vivo, Cynodon dactylon
Summary of the method: (§1)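 Seeds were sown in greenhouse pots, one species per pot or compartment. Compounds were in a non-phytotoxic solvent mixture with surfactant; preemergence applications went on the sandy loam surface within one day of planting. Injury was rated visually after 14 to 21 days, 0 (none) to 100 (complete control).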

goosegrass = assay: Test D goosegrass; type: in vivo, Eleusine indica
Summary of the method: as §1

common pursiane = assay: Test D common purslane; type: in vivo, Portulaca oleracea
Summary of the method: as §1

sandbur = assay: Test D sandbur; type: in vivo, Cenchrus echinatus
Summary of the method: as §1

tall mallow = assay: Test D tall mallow; type: in vivo, Malva sylvestris
Summary of the method: as §1

dallisgrass = assay: Test D dallisgrass; type: in vivo, Paspalum dilatatum
Summary of the method: as §1

guineagrass = assay: Test D guineagrass; type: in vivo, Panicum maximum
Summary of the method: as §1

Spanishneedles = assay: Test D Spanishneedles; type: in vivo, Bidens bipinnata
Summary of the method: as §1

common groundsel = assay: Test D common groundsel; type: in vivo, Senecio vulgaris
Summary of the method: as §1

purple nutsedge = assay: Test D purple nutsedge; type: in vivo, Cyperus rotundus
Summary of the method: as §1

large crabgrass = assay: Test D large crabgrass; type: in vivo, Digitaria sanguinalis
Summary of the method: as §1

Alexandergrass = assay: Test D Alexandergrass; type: in vivo, Brachiaria plantaginea
Summary of the method: as §1

pitted morningglory = assay: Test D pitted morningglory; type: in vivo, Ipomoea lacunosa
Summary of the method: as §1

surinam grass = assay: Test D surinam grass; type: in vivo, Brachiaria decumbens
Summary of the method: as §1

Johnson grass = assay: Test D Johnson grass; type: in vivo, Sorghum halepense
Summary of the method: as §1

[1] = Rate 16 g/ha, 0 no injury, 100 complete control
[2] = Rate 32 g/ha, 0 no injury, 100 complete control
[3] = Rate 64 g/ha, 0 no injury, 100 complete control
[4] = Rate 125 g/ha, 0 no injury, 100 complete control

SMILES: CC(C)N(C(=O)n1oc(=O)n(Cc2cccs2)c1=O)c1ccccc1 [Compound 103]
- Plant response rating, Bermudagrass (bermuda-grass; [1]): 30
- Plant response rating, Bermudagrass (bermuda-grass; [2]): 30
- Plant response rating, Bermudagrass (bermuda-grass; [3]): 60
- Plant response rating, Bermudagrass (bermuda-grass; [4]): 80
- Plant response rating, Bermudagrass (bermuda-grass; Rate 250 g/ha): 100
- Plant response rating, Bermudagrass (bermuda-grass; Rate 500 g/ha): 100
- Plant response rating, Goosegrass (goosegrass; [1]): 0
- Plant response rating, Goosegrass (goosegrass; [2]): 30
- Plant response rating, Goosegrass (goosegrass; [3]): 65
- Plant response rating, Goosegrass (goosegrass; [4]): 85
- Plant response rating, Goosegrass (goosegrass; Rate 250 g/ha): 98
- Plant response rating, Goosegrass (goosegrass; Rate 500 g/ha): 100
- Plant response rating, C. purslane (common pursiane; [1]): 0
- Plant response rating, C. purslane (common pursiane; [2]): 0
- Plant response rating, C. purslane (common pursiane; [3]): 0
- Plant response rating, C. purslane (common pursiane; [4]): 0
- Plant response rating, C. purslane (common pursiane; Rate 250 g/ha): 0
- Plant response rating, C. purslane (common pursiane; Rate 500 g/ha): 0
- Plant response rating, Sandbur (sandbur; [1]): 0
- Plant response rating, Sandbur (sandbur; [2]): 0
- Sandbur plant response rating (sandbur; [3]): 0
- Sandbur plant response rating (sandbur; [4]): 0
- Plant response rating, Sandbur (sandbur; Rate 250 g/ha): 75
- Plant response rating, Sandbur (sandbur; Rate 500 g/ha): 100
- Plant response rating, Tall Mallow (tall mallow; [1]): 0
- Plant response rating, Tall Mallow (tall mallow; [2]): 0
- Tall Mallow plant response rating (tall mallow; [3]): 0
- Tall Mallow plant response rating (tall mallow; [4]): 0
- Plant response rating, Tall Mallow (tall mallow; Rate 250 g/ha): 0
- Plant response rating, Tall Mallow (tall mallow; Rate 500 g/ha): 0
- Plant response rating, Dallisgrass (dallisgrass; [1]): 10
- Plant response rating, Dallisgrass (dallisgrass; [2]): 20
- Plant response rating, Dallisgrass (dallisgrass; [3]): 45
- Plant response rating, Dallisgrass (dallisgrass; [4]): 65
- Plant response rating, Dallisgrass (dallisgrass; Rate 250 g/ha): 98
- Plant response rating, Dallisgrass (dallisgrass; Rate 500 g/ha): 100
- Plant response rating, Guineagrass (guineagrass; [1]): 0
- Plant response rating, Guineagrass (guineagrass; [2]): 0
- Plant response rating, Guineagrass (guineagrass; [3]): 0
- Plant response rating, Guineagrass (guineagrass; [4]): 85
- Plant response rating, Guineagrass (guineagrass; Rate 250 g/ha): 90
- Plant response rating, Guineagrass (guineagrass; Rate 500 g/ha): 100
- Plant response rating, Spanishneedles (Spanishneedles; [1]): 0
- Plant response rating, Spanishneedles (Spanishneedles; [2]): 0
- Spanishneedles plant response rating (Spanishneedles; [3]): 0
- Spanishneedles plant response rating (Spanishneedles; [4]): 0
- Plant response rating, Spanishneedles (Spanishneedles; Rate 500 g/ha): 20
- Plant response rating, Com. groundsel (common groundsel; [1]): 0
- Plant response rating, Com. groundsel (common groundsel; [2]): 0
- Plant response rating, Com. groundsel (common groundsel; [3]): 0
- Plant response rating, Com. groundsel (common groundsel; [4]): 0
- Plant response rating, Com. groundsel (common groundsel; Rate 250 g/ha): 0
- Plant response rating, Com. groundsel (common groundsel; Rate 500 g/ha): 0
- Plant response rating, Purple nutsedge (purple nutsedge; [1]): 0
- Plant response rating, Purple nutsedge (purple nutsedge; [2]): 0
- Purple nutsedge plant response rating (purple nutsedge; [3]): 0
- Purple nutsedge plant response rating (purple nutsedge; [4]): 0
- Plant response rating, Purple nutsedge (purple nutsedge; Rate 250 g/ha): 0
- Plant response rating, Purple nutsedge (purple nutsedge; Rate 500 g/ha): 10
- Plant response rating, Large crabgrass (large crabgrass; [1]): 0
- Plant response rating, Large crabgrass (large crabgrass; [2]): 0
- Plant response rating, Large crabgrass (large crabgrass; [3]): 85
- Plant response rating, Large crabgrass (large crabgrass; [4]): 95
- Plant response rating, Large crabgrass (large crabgrass; Rate 250 g/ha): 98
- Plant response rating, Large crabgrass (large crabgrass; Rate 500 g/ha): 100
- Plant response rating, Alexandergrass (Alexandergrass; [1]): 0
- Plant response rating, Alexandergrass (Alexandergrass; [2]): 0
- Plant response rating, Alexandergrass (Alexandergrass; [3]): 0
- Plant response rating, Alexandergrass (Alexandergrass; [4]): 40
- Plant response rating, Alexandergrass (Alexandergrass; Rate 250 g/ha): 85
- Plant response rating, Alexandergrass (Alexandergrass; Rate 500 g/ha): 95
- Plant response rating, P. morninglory (pitted morningglory; [1]): 0
- Plant response rating, P. morninglory (pitted morningglory; [2]): 0
- Plant response rating, P. morninglory (pitted morningglory; [3]): 0
- Plant response rating, P. morninglory (pitted morningglory; [4]): 0
- Plant response rating, P. morninglory (pitted morningglory; Rate 250 g/ha): 0
- Plant response rating, P. morninglory (pitted morningglory; Rate 500 g/ha): 0
- Plant response rating, Surinam grass (surinam grass; [1]): 0
- Plant response rating, Surinam grass (surinam grass; [2]): 0
- Surinam grass plant response rating (surinam grass; [3]): 0
- Surinam grass plant response rating (surinam grass; [4]): 0
- Plant response rating, Surinam grass (surinam grass; Rate 250 g/ha): 0
- Plant response rating, Surinam grass (surinam grass; Rate 500 g/ha): 40
- Plant response rating, Johnsongrass (Johnson grass; [1]): 0
- Plant response rating, Johnsongrass (Johnson grass; [2]): 0
- Plant response rating, Johnsongrass (Johnson grass; [3]): 0
- Plant response rating, Johnsongrass (Johnson grass; [4]): 0
- Plant response rating, Johnsongrass (Johnson grass; Rate 250 g/ha): 0
- Plant response rating, Johnsongrass (Johnson grass; Rate 500 g/ha): 40

SMILES: CCCn1c(=O)on(C(=O)N(c2ccc(Cl)cc2)C(C)C)c1=O [Compound 119]
- Plant response rating, Bermudagrass (bermuda-grass; [1]): 50
- Plant response rating, Bermudagrass (bermuda-grass; [2]): 65
- Plant response rating, Bermudagrass (bermuda-grass; [3]): 100
- Plant response rating, Bermudagrass (bermuda-grass; [4]): 100
- Plant response rating, Bermudagrass (bermuda-grass; Rate 250 g/ha): 100
- Plant response rating, Goosegrass (goosegrass; [1]): 30
- Plant response rating, Goosegrass (goosegrass; [2]): 85
- Plant response rating, Goosegrass (goosegrass; [3]): 98
- Plant response rating, Goosegrass (goosegrass; [4]): 100
- Plant response rating, Goosegrass (goosegrass; Rate 250 g/ha): 100
- Plant response rating, C. purslane (common pursiane; [1]): 0
- Plant response rating, C. purslane (common pursiane; [2]): 0
- Plant response rating, C. purslane (common pursiane; [3]): 0
- Plant response rating, C. purslane (common pursiane; [4]): 0
- Plant response rating, C. purslane (common pursiane; Rate 250 g/ha): 0
- Plant response rating, Sandbur (sandbur; [1]): 0
- Plant response rating, Sandbur (sandbur; [2]): 0
- Sandbur plant response rating (sandbur; [3]): 65
- Sandbur plant response rating (sandbur; [4]): 98
- Plant response rating, Sandbur (sandbur; Rate 250 g/ha): 100
- Plant response rating, Tall Mallow (tall mallow; [1]): 0
- Plant response rating, Tall Mallow (tall mallow; [2]): 0
- Tall Mallow plant response rating (tall mallow; [3]): 0
- Tall Mallow plant response rating (tall mallow; [4]): 0
- Plant response rating, Tall Mallow (tall mallow; Rate 250 g/ha): 0
- Plant response rating, Dallisgrass (dallisgrass; [1]): 30
- Plant response rating, Dallisgrass (dallisgrass; [2]): 65
- Plant response rating, Dallisgrass (dallisgrass; [3]): 85
- Plant response rating, Dallisgrass (dallisgrass; [4]): 90
- Plant response rating, Dallisgrass (dallisgrass; Rate 250 g/ha): 98
- Plant response rating, Guineagrass (guineagrass; [1]): 65
- Plant response rating, Guineagrass (guineagrass; [2]): 75
- Plant response rating, Guineagrass (guineagrass; [3]): 85
- Plant response rating, Guineagrass (guineagrass; [4]): 98
- Plant response rating, Guineagrass (guineagrass; Rate 250 g/ha): 98
- Plant response rating, Spanishneedles (Spanishneedles; [1]): 0
- Plant response rating, Spanishneedles (Spanishneedles; [2]): 0
- Spanishneedles plant response rating (Spanishneedles; [3]): 0
- Spanishneedles plant response rating (Spanishneedles; [4]): 10
- Plant response rating, Com. groundsel (common groundsel; [1]): 85
- Plant response rating, Com. groundsel (common groundsel; [2]): 98
- Plant response rating, Com. groundsel (common groundsel; [3]): 100
- Plant response rating, Com. groundsel (common groundsel; [4]): 100
- Plant response rating, Com. groundsel (common groundsel; Rate 250 g/ha): 100
- Plant response rating, Purple nutsedge (purple nutsedge; [1]): 0
- Plant response rating, Purple nutsedge (purple nutsedge; [2]): 0
- Purple nutsedge plant response rating (purple nutsedge; [3]): 0
- Purple nutsedge plant response rating (purple nutsedge; [4]): 0
- Plant response rating, Purple nutsedge (purple nutsedge; Rate 250 g/ha): 0
- Plant response rating, Large crabgrass (large crabgrass; [1]): 85
- Plant response rating, Large crabgrass (large crabgrass; [2]): 90
- Plant response rating, Large crabgrass (large crabgrass; [3]): 98
- Plant response rating, Large crabgrass (large crabgrass; [4]): 100
- Plant response rating, Large crabgrass (large crabgrass; Rate 250 g/ha): 100
- Plant response rating, Alexandergrass (Alexandergrass; [1]): 0
- Plant response rating, Alexandergrass (Alexandergrass; [2]): 50
- Plant response rating, Alexandergrass (Alexandergrass; [3]): 75
- Plant response rating, Alexandergrass (Alexandergrass; [4]): 98
- Plant response rating, Alexandergrass (Alexandergrass; Rate 250 g/ha): 100
- Plant response rating, P. morninglory (pitted morningglory; [1]): 0
- Plant response rating, P. morninglory (pitted morningglory; [2]): 0
- Plant response rating, P. morninglory (pitted morningglory; [3]): 0
- Plant response rating, P. morninglory (pitted morningglory; [4]): 0
- Plant response rating, P. morninglory (pitted morningglory; Rate 250 g/ha): 0
- Plant response rating, Surinam grass (surinam grass; [1]): 0
- Plant response rating, Surinam grass (surinam grass; [2]): 0
- Surinam grass plant response rating (surinam grass; [3]): 50
- Surinam grass plant response rating (surinam grass; [4]): 85
- Plant response rating, Surinam grass (surinam grass; Rate 250 g/ha): 98
- Plant response rating, Johnsongrass (Johnson grass; [1]): 0
- Plant response rating, Johnsongrass (Johnson grass; [2]): 0
- Plant response rating, Johnsongrass (Johnson grass; [3]): 65
- Plant response rating, Johnsongrass (Johnson grass; [4]): 75
- Plant response rating, Johnsongrass (Johnson grass; Rate 250 g/ha): 85
